We go through ten molecules from ChEMBL document CHEMBL1275260, “N-acetylcysteine-mediated modulation of bacterial antibiotic susceptibility” (2010).

In brackets after ≈: the same amount, converted by molar mass. Activity calls are given as the source filed them. The rule behind the calls is not given here.

Assay [1] concerns Klebsiella aerogenes. Briefly: Antibacterial activity against Klebsiella aerogenes NCIM 2281. Type of assay: functional.
The subject of assay [2] is Escherichia coli. Kind of assay: Antibacterial activity against Escherichia coli MG1655. The format is functional.
For assay [3], the system named is Klebsiella aerogenes. Briefly: Antibacterial activity against Klebsiella aerogenes NCIM 2281 in presence of 10 mM N-Acetylcysteine. Type of assay: functional.
Assay [4] relates to Escherichia coli. Kind of assay: Antibacterial activity against Escherichia coli W3110. The conditions noted are these: K-12 substr. W3110. The format is functional.
In assay [5] the test system is Escherichia coli. Briefly: Antibacterial activity against Escherichia coli DH5alpha. The format is functional. The conditions noted are these: DH5[alpha].
In assay [6] the test system is Escherichia coli. Kind of assay: Antibacterial activity against Escherichia coli DH5alpha in presence of 10 mM N-Acetylcysteine. The conditions noted are these: DH5[alpha]. The format is functional.
The test system of assay [7] is Pseudomonas aeruginosa. Briefly: Antibacterial activity against Pseudomonas aeruginosa NCIM 5029 in presence of 10 mM N-Acetylcysteine. The format is functional.
Assay [8] concerns Escherichia coli. Kind of assay: Antibacterial activity against Escherichia coli MG1655 in presence of 10 mM N-Acetylcysteine. Type of assay: functional.
The next assay has as its system Klebsiella pneumoniae. Briefly: Antibacterial activity against Klebsiella pneumoniae NCIM 2883 assessed as growth inhibition in presence of 10 mM N-Acetylcysteine. Type of assay: functional, organism-based.
The test system of assay [9] is Pseudomonas aeruginosa. Kind of assay: Antibacterial activity against Pseudomonas aeruginosa NCIM 5029. The format is functional.
The test system of assay [10] is Escherichia coli. Briefly: Antibacterial activity against Escherichia coli W3110 in presence of 10 mM N-Acetylcysteine. The format is functional. The conditions noted are these: K-12 substr. W3110.

Usually MIC stands for the least concentration at which growth counts as inhibited. Regarding `CC1(C)S[C@@H]2[C@H](NC(=O)[C@H](N)c3ccccc3)C(=O)N2[C@H]1C(=O)O` [AMPICILLIN], the MIC in the assay with Klebsiella aerogenes [1] came to 32 µg/mL (≈ 91.6 µM); in the assay with Escherichia coli [2] it was 4 µg/mL (≈ 11.4 µM); in the assay on Klebsiella aerogenes [3], 32 µg/mL; against Escherichia coli [4], 8 µg/mL (≈ 22.9 µM); in the assay with Escherichia coli [5] it was 4 µg/mL (≈ 11.4 µM); with Escherichia coli [6], 4 µg/mL. The MIC in the assay with Pseudomonas aeruginosa [7] was determined as 128 µg/mL; with Escherichia coli [8] it was 1 µg/mL; against Pseudomonas aeruginosa [9], 1020 µg/mL (≈ 2930 µM). The result with Klebsiella pneumoniae was Active.

`O=C(N[C@H](CO)[C@H](O)c1ccc([N+](=O)[O-])cc1)C(Cl)Cl` [CHLORAMPHENICOL]: the MIC in the assay on Klebsiella aerogenes [1] stood at 1 µg/mL (≈ 3.09 µM); in the assay on Escherichia coli [2] it was 4 µg/mL (≈ 12.4 µM); in the assay on Escherichia coli [10], 1 µg/mL; with Klebsiella aerogenes [3], 1 µg/mL; against Escherichia coli [4] it was 1 µg/mL (≈ 3.09 µM); against Escherichia coli [5] it was 2 µg/mL (≈ 6.19 µM). Besides, the MIC with Escherichia coli [6] was found to be 2 µg/mL; in the assay with Pseudomonas aeruginosa [7], 128 µg/mL; in the assay with Escherichia coli [8] it was 4 µg/mL; in the assay on Pseudomonas aeruginosa [9], 128 µg/mL (≈ 396 µM). For the same molecule, in the assay on Klebsiella pneumoniae, the result was Active.

Regarding `O=C(O)c1cn(C2CC2)c2cc(N3CCNCC3)c(F)cc2c1=O` [CIPROFLOXACIN], the MIC with Klebsiella aerogenes [1] was 0.016 µg/mL (≈ 0.0483 µM); in the assay on Escherichia coli [10] it was 0.064 µg/mL; in the assay with Klebsiella aerogenes [3] it was 0.512 µg/mL; in the assay with Pseudomonas aeruginosa [7] it was 2.05 µg/mL; with Escherichia coli [8], 0.512 µg/mL; with Pseudomonas aeruginosa [9], 1.02 µg/mL (≈ 3.09 µM). Moreover, in the assay with Klebsiella pneumoniae, the outcome was Active.

Take `CC[C@H]1OC(=O)[C@H](C)[C@@H](O[C@H]2C[C@@](C)(OC)[C@@H](O)[C@H](C)O2)[C@H](C)[C@@H](O[C@@H]2O[C@H](C)C[C@H](N(C)C)[C@H]2O)[C@](C)(O)C[C@@H](C)C(=O)[C@H](C)[C@@H](O)[C@]1(C)O` [ERYTHROMYCIN]: the MIC with Klebsiella aerogenes [1] was 32 µg/mL (≈ 43.6 µM); in the assay with Escherichia coli [2], 32 µg/mL (≈ 43.6 µM); in the assay with Escherichia coli [10] it was 512 µg/mL; in the assay with Klebsiella aerogenes [3] it was 1020 µg/mL; against Escherichia coli [4], 4 µg/mL (≈ 5.45 µM); against Escherichia coli [5], 16 µg/mL (≈ 21.8 µM). Moreover, the MIC was determined as 16 µg/mL with Escherichia coli [6], 1020 µg/mL in the assay with Pseudomonas aeruginosa [7], 1020 µg/mL with Escherichia coli [8] and 256 µg/mL (≈ 349 µM) in the assay with Pseudomonas aeruginosa [9]. Further, the result with Klebsiella pneumoniae was Active.

As for `NC[C@H]1O[C@H](O[C@H]2[C@H](O)[C@@H](O[C@H]3O[C@H](CO)[C@@H](O)[C@H](N)[C@H]3O)[C@H](N)C[C@@H]2N)[C@H](O)[C@@H](O)[C@@H]1O` [KANAMYCIN], the MIC turned out to be 1 µg/mL (≈ 2.06 µM) in the assay with Klebsiella aerogenes [1]; 1 µg/mL (≈ 2.06 µM) against Escherichia coli [2]; 16 µg/mL in the assay on Escherichia coli [10]; 16 µg/mL in the assay on Klebsiella aerogenes [3]; 1 µg/mL (≈ 2.06 µM) in the assay on Escherichia coli [4]; 0.5 µg/mL (≈ 1.03 µM) in the assay with Escherichia coli [5]. Further, the MIC came to 0.5 µg/mL in the assay with Escherichia coli [6], 256 µg/mL in the assay on Pseudomonas aeruginosa [7], 32 µg/mL in the assay on Escherichia coli [8] and 64 µg/mL (≈ 132 µM) in the assay with Pseudomonas aeruginosa [9]. The outcome in the assay on Klebsiella pneumoniae was Active.

With `CC1COc2c(N3CCN(C)CC3)c(F)cc3c(=O)c(C(=O)O)cn1c23` (stereo not given) [OFLOXACIN], the MIC in the assay on Klebsiella aerogenes [1] was found to be 0.064 µg/mL (≈ 0.177 µM); with Escherichia coli [2] it was 0.032 µg/mL (≈ 0.0886 µM); with Escherichia coli [10], 0.032 µg/mL; with Klebsiella aerogenes [3], 0.512 µg/mL; with Pseudomonas aeruginosa [7], 2.05 µg/mL; with Escherichia coli [8], 1.02 µg/mL. The MIC with Pseudomonas aeruginosa [9] was found to be 0.256 µg/mL (≈ 0.708 µM). Moreover, the result with Klebsiella pneumoniae was Active.

In the case of `CC1(C)S[C@@H]2[C@H](NC(=O)Cc3ccccc3)C(=O)N2[C@H]1C(=O)O` [PENICILLIN G], the MIC worked out at 64 µg/mL (≈ 191 µM) against Klebsiella aerogenes [1]; 64 µg/mL (≈ 191 µM) against Escherichia coli [2]; 64 µg/mL in the assay with Escherichia coli [10]; 64 µg/mL with Klebsiella aerogenes [3]; 64 µg/mL (≈ 191 µM) with Escherichia coli [4]; 2050 µg/mL in the assay with Pseudomonas aeruginosa [7]. For the same molecule, the MIC is 64 µg/mL with Escherichia coli [8] and greater than 4100 µg/mL in the assay on Pseudomonas aeruginosa [9]. Moreover, the result in the assay on Klebsiella pneumoniae was Active.

`CN[C@@H]1[C@H](O)[C@H](NC)[C@H]2O[C@@]3(O)C(=O)C[C@@H](C)O[C@H]3O[C@@H]2[C@H]1O` [SPECTINOMYCIN]: the MIC is 8 µg/mL (≈ 24.1 µM) with Klebsiella aerogenes [1]; 8 µg/mL (≈ 24.1 µM) in the assay on Escherichia coli [2]; 128 µg/mL in the assay on Escherichia coli [10]; 128 µg/mL with Klebsiella aerogenes [3]; 6 µg/mL (≈ 18.1 µM) against Escherichia coli [4]; 4 µg/mL (≈ 12 µM) against Escherichia coli [5]. Further, the MIC with Escherichia coli [6] stood at 4 µg/mL; in the assay with Pseudomonas aeruginosa [7], 512 µg/mL; in the assay with Escherichia coli [8] it was 256 µg/mL; in the assay with Pseudomonas aeruginosa [9], 256 µg/mL (≈ 770 µM). Also, the result with Klebsiella pneumoniae was Active.

As for `CN[C@@H]1[C@H](O[C@H]2[C@H](O[C@H]3[C@H](O)[C@@H](O)[C@H](N=C(N)N)[C@@H](O)[C@@H]3N=C(N)N)O[C@@H](C)[C@]2(O)C=O)O[C@@H](CO)[C@H](O)[C@H]1O` [STREPTOMYCIN], the MIC was 2 µg/mL (≈ 3.44 µM) in the assay on Klebsiella aerogenes [1]; 2 µg/mL (≈ 3.44 µM) in the assay on Escherichia coli [2]; 16 µg/mL in the assay on Escherichia coli [10]; 16 µg/mL in the assay on Klebsiella aerogenes [3]; 2 µg/mL (≈ 3.44 µM) with Escherichia coli [4]; 1 µg/mL (≈ 1.72 µM) against Escherichia coli [5]. The MIC in the assay with Escherichia coli [6] stood at 1 µg/mL; with Pseudomonas aeruginosa [7], 64 µg/mL; with Escherichia coli [8] it was 32 µg/mL; against Pseudomonas aeruginosa [9] it was 8 µg/mL (≈ 13.8 µM). Also, the result in the assay with Klebsiella pneumoniae was Active.

Turning to `CN(C)[C@@H]1C(O)=C(C(N)=O)C(=O)[C@@]2(O)C(O)=C3C(=O)c4c(O)cccc4[C@@](C)(O)[C@H]3C[C@@H]12` [TETRACYCLINE], the MIC came to 1 µg/mL (≈ 2.25 µM) against Klebsiella aerogenes [1]; 1 µg/mL (≈ 2.25 µM) with Escherichia coli [2]; 0.062 µg/mL in the assay with Escherichia coli [10]; 1 µg/mL in the assay with Klebsiella aerogenes [3]; 0.062 µg/mL (≈ 0.14 µM) in the assay with Escherichia coli [4]; 1 µg/mL (≈ 2.25 µM) in the assay on Escherichia coli [5]. The MIC in the assay on Escherichia coli [6] came out at 1 µg/mL; in the assay with Pseudomonas aeruginosa [7], 8 µg/mL; in the assay with Escherichia coli [8], 1 µg/mL; with Pseudomonas aeruginosa [9], 8 µg/mL (≈ 18 µM). Moreover, the outcome in the assay on Klebsiella pneumoniae was Active.
